Experimental data: patent US20070026465A1, “Method for detecting GAD65 autoreactive T cells newly diagnosed type1 diabetic patients and in the prediabetic period” (priority 2005, published 2007)

Test system: PBMC of newly diagnosed T1D patients
Experiment: GAD65 HLA class I tetramer staining and flow cytometry of stimulated PBMC, T1D patients
Assay type: cell-based, human

For VMNILLQYV [GAD65 peptide], the “% of CD3+/CD8+/GAD65 reactive T cells (specificity of the response)” value was 6.39%.
